Data reported in ChEMBL document CHEMBL3734672, “Synthesis, cyclooxygenase inhibition, anti-inflammatory evaluation and ulcerogenic liability of novel triarylpyrazoline derivatives as selective COX-2 inhibitors” (Bioorg Med Chem Lett, 2015).
pIC50: −log10 of the molar value.

Assays:
[1] = system: Rattus norvegicus; assay: Antiinflammatory activity in rat assessed as inhibition of carrageenan-induced paw edema at 50 mg/kg, po measured after 3hrs post carrageenan challenge; assay type: functional
[2] = target: T1, Prostaglandin G/H synthase 2 (Homo sapiens, UniProt P35354); assay: Inhibition of human recombinant COX-2 preincubated for 2 mins prior to arachidonic acid addition by enzyme immuno assay
T1 sequence (P35354 whole entry): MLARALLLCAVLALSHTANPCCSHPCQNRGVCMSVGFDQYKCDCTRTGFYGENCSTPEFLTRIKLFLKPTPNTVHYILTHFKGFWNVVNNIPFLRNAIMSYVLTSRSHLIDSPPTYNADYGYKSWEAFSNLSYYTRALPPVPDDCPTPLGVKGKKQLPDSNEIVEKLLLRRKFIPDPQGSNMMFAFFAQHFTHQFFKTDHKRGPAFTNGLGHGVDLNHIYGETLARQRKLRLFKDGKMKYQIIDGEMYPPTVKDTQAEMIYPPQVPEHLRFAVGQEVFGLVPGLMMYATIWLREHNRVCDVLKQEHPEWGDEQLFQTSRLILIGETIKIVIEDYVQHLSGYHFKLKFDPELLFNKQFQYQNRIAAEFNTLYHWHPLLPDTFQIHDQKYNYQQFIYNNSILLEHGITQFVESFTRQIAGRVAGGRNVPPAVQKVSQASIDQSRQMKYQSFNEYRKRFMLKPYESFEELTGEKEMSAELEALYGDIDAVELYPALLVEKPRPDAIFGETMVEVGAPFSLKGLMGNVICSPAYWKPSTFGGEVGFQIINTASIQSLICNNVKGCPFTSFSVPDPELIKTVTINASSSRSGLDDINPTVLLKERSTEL

[3] = target: T2, Prostaglandin G/H synthase 1 (Ovis aries, UniProt P05979); assay: Inhibition of ovine COX-1 preincubated for 2 mins prior to arachidonic acid addition by enzyme immuno assay
T2 sequence (P05979 whole entry): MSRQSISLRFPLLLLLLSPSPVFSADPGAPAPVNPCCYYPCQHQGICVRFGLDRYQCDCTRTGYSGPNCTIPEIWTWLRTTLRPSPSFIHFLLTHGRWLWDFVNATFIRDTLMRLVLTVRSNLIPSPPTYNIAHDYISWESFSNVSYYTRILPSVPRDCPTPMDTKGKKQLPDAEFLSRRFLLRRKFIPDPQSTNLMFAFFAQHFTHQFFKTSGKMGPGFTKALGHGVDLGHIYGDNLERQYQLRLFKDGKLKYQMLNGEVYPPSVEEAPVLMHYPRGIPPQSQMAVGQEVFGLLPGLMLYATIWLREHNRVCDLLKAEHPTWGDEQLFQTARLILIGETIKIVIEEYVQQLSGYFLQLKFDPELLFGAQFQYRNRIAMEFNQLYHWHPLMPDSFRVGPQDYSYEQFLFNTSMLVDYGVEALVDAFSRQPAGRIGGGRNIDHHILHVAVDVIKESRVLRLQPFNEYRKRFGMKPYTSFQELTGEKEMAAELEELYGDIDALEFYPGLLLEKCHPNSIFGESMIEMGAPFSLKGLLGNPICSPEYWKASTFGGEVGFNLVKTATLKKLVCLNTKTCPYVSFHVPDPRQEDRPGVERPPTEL

[4] = Selectivity index, ratio of IC50 for ovine COX-1 to IC50 for human recombinant COX-2
[5] = system: Rattus norvegicus; assay: Ulcerogenic activity in rat assessed as ulcer index at 100 mg/kg; assay type: toxicity, organism-based; conditions: in vivo
[6] = system: Rattus norvegicus; assay: Gastrointestinal toxicity in rat assessed as ulcer incidence at 100 mg/kg; assay type: organism-based; conditions: in vivo

| SMILES | inhibition in vivo at 50 mg/kg [1] [%] | pIC50 [2] | pIC50 [3] | Ratio IC50 [4] | UI [5] | Activity [6] [%] |
| --- | --- | --- | --- | --- | --- | --- |
| CS(=O)(=O)c1ccc(C2=NN(c3ccc(C(=O)O)cc3)C(c3ccc(F)cc3)C2)cc1 (stereo not given) | 42.3 | 5.55 | 5.01 | 3.42 | – | – |
| COc1cc(C2CC(c3ccc(S(C)(=O)=O)cc3)=NN2c2ccc(C(=O)O)cc2)cc(OC)c1OC (stereo not given) | 66.2 | 5.23 | 4.87 | 2.51 | 6.85 | 5.5 |
| COc1cc(C2CC(c3ccc(S(C)(=O)=O)cc3)=NN2c2ccc(S(N)(=O)=O)cc2)cc(OC)c1OC (stereo not given) | 73.7 | 5.33 | 4.91 | 2.63 | 5.92 | 5 |
| COc1ccc2c(c1)c(CC(=O)O)c(C)n2C(=O)c1ccc(Cl)cc1 [INDOMETHACIN] | – | – | – | – | 12.3 | 8.3 |
| Cc1ccc(-c2cc(C(F)(F)F)nn2-c2ccc(S(N)(=O)=O)cc2)cc1 [CELECOXIB] | 65.3 | – | – | – | 4.85 | 4.2 |
| CS(=O)(=O)c1ccc(C2=NN(c3ccc(S(N)(=O)=O)cc3)C(c3ccc(Cl)cc3)C2)cc1 (stereo not given) | 42.4 | 5.57 | 5.08 | 3.11 | – | – |
| COc1ccc(C2CC(c3ccc(S(C)(=O)=O)cc3)=NN2c2ccc(C(=O)O)cc2)cc1OC (stereo not given) | 6.11 | 5.43 | 5.01 | 2.61 | – | – |
| CS(=O)(=O)c1ccc(C2=NN(c3ccc(S(N)(=O)=O)cc3)C(c3cccs3)C2)cc1 (stereo not given) | 36.4 | 5.76 | 5.19 | 3.71 | – | – |
| COc1ccc(C2CC(c3ccc(S(C)(=O)=O)cc3)=NN2c2ccc(S(N)(=O)=O)cc2)cc1OC (stereo not given) | 45.5 | 5.70 | 5.06 | 4.41 | – | – |
| COc1ccc(C2CC(c3ccc(S(C)(=O)=O)cc3)=NN2c2ccc(S(N)(=O)=O)cc2)cc1 (stereo not given) | 42.4 | 5.68 | 5.19 | 3.1 | – | – |
| CS(=O)(=O)c1ccc(C2=NN(c3ccc(C(=O)O)cc3)C(c3cccs3)C2)cc1 (stereo not given) | 35.6 | 5.94 | 5.33 | 4.11 | – | – |
| CS(=O)(=O)c1ccc(C2=NN(c3ccc(S(N)(=O)=O)cc3)C(c3ccccc3)C2)cc1 (stereo not given) | 54.3 | 5.79 | 5.27 | 3.33 | – | – |
| COc1ccc(C2CC(c3ccc(S(C)(=O)=O)cc3)=NN2c2ccc(C(=O)O)cc2)cc1 (stereo not given) | 55.4 | 5.66 | 5.18 | 3.11 | – | – |
| CS(=O)(=O)c1ccc(C2=NN(c3ccc(C(=O)O)cc3)C(c3ccc(Cl)cc3)C2)cc1 (stereo not given) | 50.4 | 5.40 | 4.94 | 2.91 | – | – |
| COc1cccc(C2CC(c3ccc(S(C)(=O)=O)cc3)=NN2c2ccc(C(=O)O)cc2)c1 (stereo not given) | 31.3 | 5.33 | 5.00 | 2.21 | – | – |
| CS(=O)(=O)c1ccc(C2=NN(c3ccc(C(=O)O)cc3)C(c3ccccc3)C2)cc1 (stereo not given) | 56.4 | 6.01 | 5.31 | 5 | – | – |
| COc1cccc(C2CC(c3ccc(S(C)(=O)=O)cc3)=NN2c2ccc(S(N)(=O)=O)cc2)c1 (stereo not given) | 38.3 | 5.75 | 5.15 | 4.11 | – | – |
| CS(=O)(=O)c1ccc(C2=NN(c3ccc(S(N)(=O)=O)cc3)C(c3ccc(F)cc3)C2)cc1 (stereo not given) | 65.7 | 5.47 | 5.01 | 2.91 | 7.7 | 6 |
